Blank lines part the entries; values can stand above or below the molecule they belong to. The source made the active and inactive calls. The rule behind the calls is not given here.
Columns and labels:
[1] = target: Amyloid-beta precursor protein (Homo sapiens) (UniProt P05067); experiment: Inhibition of recombinant human amyloid beta (1 to 42) aggregation at 100 uM measured every 10 mins for 48 hrs by thioflavin T fluorescence assay
[2] = target: Amyloid-beta precursor protein (Homo sapiens) (UniProt P05067); experiment: Induction of morphological changes in recombinant human amyloid beta (1 to 42) fibrils assessed as thinner fibril at 100 uM measured after 48 hrs by transmission electron microscopic method
[3] = target: Amyloid-beta precursor protein (Homo sapiens) (UniProt P05067); experiment: Induction of morphological changes in recombinant human amyloid beta (1 to 42) fibrils assessed as shorter fibril at 100 uM measured after 48 hrs by transmission electron microscopic method
[4] = target: Amyloid-beta precursor protein (Homo sapiens) (UniProt P05067); experiment: Induction of morphological changes in recombinant human amyloid beta (1 to 42) assessed as loosely attached fibrils at 100 uM measured after 48 hrs by transmission electron microscopic method
[5] = target: Amyloid-beta precursor protein (Homo sapiens) (UniProt P05067); experiment: Induction of morphological changes in recombinant human amyloid beta (1 to 42) assessed as smoother fibrils at 100 uM measured after 48 hrs by transmission electron microscopic method
[6] = target: Amyloid-beta precursor protein (Homo sapiens) (UniProt P05067); experiment: Induction of morphological changes in recombinant human amyloid beta (1 to 42) assessed as less dense fibril at 100 uM measured after 48 hrs by transmission electron microscopic method
[7] = system: PC-12; experiment: Cytotoxicity against rat PC12 cells assessed as reduction in cell viability up to 100 uM after 48 hrs by MTT assay; format: cell-based; settings: pc-12, 48 h
[8] = system: PC-12; experiment: Neuroprotective activity against amyloid beta (1 to 42)-induced cell death in rat PC12 cells assessed as cell viability at 100 uM measured after 48 hrs by MTS assay relative to control; format: functional
[9] = target: Amyloid-beta precursor protein (Homo sapiens) (UniProt P05067); experiment: Induction of morphological changes in recombinant human amyloid beta (1 to 42) assessed as appearance of uneven fibrils at 100 uM measured after 48 hrs by transmission electron microscopic method
[10] = target: Amyloid-beta precursor protein (Homo sapiens) (UniProt P05067); experiment: Induction of morphological changes in recombinant human amyloid beta (1 to 42) assessed as appearance of small mesh-like aggregates at 100 uM measured after 48 hrs by transmission electron microscopic method
[11] = target: Amyloid-beta precursor protein (Homo sapiens) (UniProt P05067); experiment: Induction of morphological changes in recombinant human amyloid beta (1 to 42) assessed as appearance of punctate at 100 uM measured after 48 hrs by transmission electron microscopic method
[12] = system: PC-12; experiment: Cytotoxicity against rat PC12 cells assessed as reduction in cell viability at 100 uM after 48 hrs by MTT assay relative to control; format: cell-based; settings: pc-12, 48 h
[13] = system: PC-12; experiment: Cytotoxicity against rat PC12 cells assessed as reduction in cell viability at 10 uM after 48 hrs by MTT assay relative to control; format: cell-based; settings: pc-12, 48 h
[14] = system: PC-12; experiment: Cytotoxicity against rat PC12 cells assessed as reduction in cell viability after 48 hrs by MTT assay; format: cell-based; settings: pc-12, 48 h

Chain of Amyloid-beta precursor protein (Homo sapiens) (P05067 whole entry): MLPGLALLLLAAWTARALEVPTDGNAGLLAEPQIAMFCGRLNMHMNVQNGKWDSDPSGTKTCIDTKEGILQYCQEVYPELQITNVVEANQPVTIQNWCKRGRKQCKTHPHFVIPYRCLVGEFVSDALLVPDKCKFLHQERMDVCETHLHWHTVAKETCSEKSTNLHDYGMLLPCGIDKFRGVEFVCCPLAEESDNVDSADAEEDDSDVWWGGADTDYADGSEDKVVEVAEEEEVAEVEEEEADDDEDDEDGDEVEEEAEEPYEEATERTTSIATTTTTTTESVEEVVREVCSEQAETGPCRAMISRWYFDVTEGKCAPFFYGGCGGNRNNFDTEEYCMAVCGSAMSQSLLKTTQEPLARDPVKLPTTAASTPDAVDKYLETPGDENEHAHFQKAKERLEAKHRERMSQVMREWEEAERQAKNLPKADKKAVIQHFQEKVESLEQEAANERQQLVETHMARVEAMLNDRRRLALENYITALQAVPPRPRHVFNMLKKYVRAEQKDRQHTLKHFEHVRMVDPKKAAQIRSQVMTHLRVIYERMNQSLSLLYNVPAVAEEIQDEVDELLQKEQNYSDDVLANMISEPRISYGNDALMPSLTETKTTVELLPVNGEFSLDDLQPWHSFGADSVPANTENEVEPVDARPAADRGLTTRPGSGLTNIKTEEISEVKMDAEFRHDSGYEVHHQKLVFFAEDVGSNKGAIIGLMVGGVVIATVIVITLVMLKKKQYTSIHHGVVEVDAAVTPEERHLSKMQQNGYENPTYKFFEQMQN

- inhibition [1]: inactive
- Activity [2]: Active
- Activity [3]: Active
- Activity [4]: Active
- Activity [5]: Active
- Activity [6]: Active
SMILES: c1ccc(COc2cccc(C3N(Cc4ccccc4)CCN3Cc3ccccc3)c2)cc1
- Activity [7]: Non-Toxic
- Activity [8]: Active

- inhibition [1]: inactive
- Activity [6]: inactive
SMILES: Cc1cccc(CNC(=O)[C@@H](C)C2CCN(C(=O)c3ccc4oc(-c5ccccc5)nc4c3)CC2)c1
- Activity [12]: 87%
- Activity [13]: 35%
- Activity [14]: Dose-dependent effect

- inhibition [1]: Active
- Activity [2]: Active
- Activity [3]: Active
- Activity [4]: Active
- Activity [9]: Active
- Activity [6]: Active
SMILES: COc1cc(C2N(Cc3ccccc3)CCN2Cc2ccccc2)ccc1OCc1ccccc1
- Activity [7]: Non-Toxic
- Activity [8]: Active

Second part, the molecule before the results:

SMILES: Cn1c(SCC(=O)Nc2ccccc2)nnc1-c1ccc(N)cc1
- inhibition [1]: Active
- Activity [2]: Active
- Activity [9]: Active
- Activity [10]: Active
- Activity [11]: Active
- Activity [6]: Active
- Activity [12]: 20 to 25%
- viability at 100 µM ([8]; PC-12, 48 h, read-out: Activity): 73 to 78%

SMILES: Cc1ccc(NC(=O)CSc2nnc(-c3ccc(N)cc3)n2C)cc1
- inhibition [1]: Active
- Activity [2]: Active
- Activity [9]: Active
- Activity [10]: Active
- Activity [11]: Active
- Activity [6]: Active
- Activity [12]: 60%
